Assay results as given in article PMC4699555 (Journal of pharmaceutical sciences, 2012).
Where two headings read alike, the source gives them in different places.

Tests used:
[1] = cited from earlier work
[2] = cited from earlier work; remark: listed apart in the source
[3] = cited from earlier work; remark: listed apart in the source
[4] = human studies; cited from earlier work
[5] = cited from earlier work; remark: listed apart in the source
[6] = format: in vivo, Sprague-Dawley rats

O=C(CCCCCCC(=O)Nc1ccccc1)NO [Vorinostat, suberoylanilide hydroxamic acid]
Log partition coefficient [1]: 1.9 | Elimination half-life ([2]; animal studies): approximately 2 hours | Oral bioavailability ([2]; rats, oral 10 mg/kg): 11% | Tmax ([2]; rats, oral 10 mg/kg): 18 ± 6 min | Biopharmaceutics Classification System (BCS) class [3]: Class IV | Elimination half-life [4]: approximately 2 hours | Aqueous solubility [5]: 200 µg/mL

O=C(O)CCC(=O)Nc1ccccc1 [4-anilino-4-oxobutanoic acid]
Time up to which the metabolite could be detected in rat serum ([6]; after i.v. (10 mg/kg) and oral (50 mg/kg) vorinostat): up to 12 h | Detection of metabolite in urine ([6]; rats, after i.v. and oral vorinostat): detected
